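How tested: cells in 96-well plates exposed to compound for 48 hours at five concentrations. Here, GI50 denotes the concentration required for 50% inhibition of growth.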 Activity calls are given as the source filed them. Rule as the data show it: active = GI50 up to about 1.1 µM and inactive = higher.
Key:
Experiment in all cases: growth of human tumour cells (NCI), 48 h
[1] = test system: 786-0
[2] = test system: A498
[3] = test system: A549
[4] = test system: ACHN
[5] = test system: CAKI-1
[6] = test system: CCRF-CEM
[7] = test system: COLO 205
[8] = test system: DMS-114
[9] = test system: DMS-273
[10] = test system: EKVX
[11] = test system: HCC 2998
[12] = test system: HCT-116
[13] = test system: HCT-15
[14] = test system: HL-60
[15] = test system: HOP-62
[16] = test system: HOP-92
[17] = test system: HT-29
[18] = test system: IGROV-1
[19] = test system: K562
[20] = test system: KM-20L2
[21] = test system: KM12
[22] = test system: LOX IMVI
[23] = test system: LXFL 529
[24] = test system: M19-MEL
[25] = test system: MOLT-4
[26] = test system: NCI-H226
[27] = test system: NCI-H23
[28] = test system: NCI-H460
[29] = test system: NCI-H522
[30] = test system: OVCAR-3
[31] = test system: OVCAR-4
[32] = test system: OVCAR-8
[33] = test system: RPMI-8226
[34] = test system: RXF 393
[35] = test system: SF-268
[36] = test system: SF-295
[37] = test system: SF-539
[38] = test system: SK-MEL-28
[39] = test system: SK-MEL-2
[40] = test system: SK-MEL-5
[41] = test system: SK-OV-3
[42] = test system: SN12C
[43] = test system: SNB-19
[44] = test system: SNB-75
[45] = test system: SNB-78
[46] = test system: SR
[47] = test system: SW-620
[48] = test system: TK-10
[49] = test system: U-251
[50] = test system: UACC-257
[51] = test system: UACC-62
[52] = test system: UO-31

`CC1(SCC(N)C(=O)O)CC(=O)NC1=O` (configuration not stated) was tested, and the GI50 [1] was > 100 µM (inactive), the GI50 [2] was 420 nM (active) and the GI50 [3] was > 100 µM (inactive). For the same compound, the GI50 [4] was 62.4 µM (inactive), the GI50 [5] was > 100 µM (inactive) and the GI50 [6] was > 100 µM (inactive). For the same compound, the GI50 [7] was > 100 µM (inactive), the GI50 [8] was > 100 µM (inactive) and the GI50 [9] was > 100 µM (inactive). For the same compound, the GI50 [10] was > 100 µM (inactive), the GI50 [11] was > 100 µM (inactive) and the GI50 [12] was > 100 µM (inactive). For the same compound, the GI50 [13] was > 100 µM, the GI50 [14] was > 100 µM (inactive) and the GI50 [15] was > 100 µM (inactive). For the same compound, the GI50 [16] was > 100 µM (inactive), the GI50 [17] was > 100 µM (inactive) and the GI50 [18] was > 100 µM (inactive). For the same compound, the GI50 [19] was > 100 µM (inactive), the GI50 [20] was > 100 µM (inactive) and the GI50 [21] was > 100 µM (inactive). The GI50 [22] was > 100 µM (inactive), the GI50 [23] was > 100 µM (inactive) and the GI50 [24] was > 100 µM (inactive). The GI50 [25] was > 100 µM (inactive), the GI50 [26] was > 100 µM (inactive) and the GI50 [27] was > 100 µM (inactive). For the same compound, the GI50 [28] was > 100 µM (inactive), the GI50 [29] was > 100 µM (inactive) and the GI50 [30] was > 100 µM (inactive). For the same compound, the GI50 [31] was > 100 µM (inactive), the GI50 [32] was > 100 µM (inactive) and the GI50 [33] was > 100 µM (inactive). The GI50 [34] was > 100 µM (inactive), the GI50 [35] was > 100 µM (inactive) and the GI50 [36] was > 100 µM (inactive). The GI50 [37] was > 100 µM (inactive), the GI50 [38] was > 100 µM (inactive) and the GI50 [39] was > 100 µM (inactive). For the same compound, the GI50 [40] was > 100 µM (inactive), the GI50 [41] was > 100 µM (inactive) and the GI50 [42] was > 100 µM (inactive). The GI50 [43] was > 100 µM (inactive), the GI50 [44] was > 100 µM (inactive) and the GI50 [45] was > 100 µM (inactive). For the same compound, the GI50 [46] was > 100 µM (inactive), the GI50 [47] was > 100 µM (inactive) and the GI50 [48] was > 100 µM (inactive). The GI50 [49] was > 100 µM (inactive), the GI50 [50] was > 100 µM (inactive) and the GI50 [51] was > 100 µM (inactive). For the same compound, the GI50 [52] was > 100 µM (inactive).

Reference: ChEMBL document CHEMBL1201862, “PubChem BioAssay data set” (2004)
